This note sets out measurements from paper PMC13350973, “Allosteric ensembles elucidate mechanisms of inhibition in the human soluble epoxide hydrolase” (Communications Biology, 2026).

Changes are numbered by the printed parent chain.

The target of test [1] is T1, human soluble epoxide hydrolase (sEH) C-terminal domain (Homo sapiens, UniProt P34913).
T1 construct: gene EPHX2; CTD, amino acids 230–555
T1 sequence (P34913 230-555): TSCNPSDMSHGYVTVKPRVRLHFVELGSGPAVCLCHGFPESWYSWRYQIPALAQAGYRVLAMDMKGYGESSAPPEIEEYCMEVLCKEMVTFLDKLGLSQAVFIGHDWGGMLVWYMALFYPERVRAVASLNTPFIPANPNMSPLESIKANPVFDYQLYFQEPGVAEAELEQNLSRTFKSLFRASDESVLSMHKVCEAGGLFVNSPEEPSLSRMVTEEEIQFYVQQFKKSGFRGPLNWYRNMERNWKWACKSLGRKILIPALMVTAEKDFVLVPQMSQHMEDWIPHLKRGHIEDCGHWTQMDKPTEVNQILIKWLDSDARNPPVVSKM
Put plainly: single injection method kinetic ITC (KM). It counts as biochemical.

Test [2] concerns the target T2, human soluble epoxide hydrolase (sEH) C-terminal domain (Homo sapiens, UniProt P34913, C423S).
T2 construct: gene EPHX2; CTD, amino acids 230–555
T2 sequence (P34913 230-555 C423S): T1 sequence (P34913 230-555) with C194S
Kind of test: single injection method kinetic ITC (KM). The class given is biochemical.

The target in test [3] is T3, human soluble epoxide hydrolase (sEH) C-terminal domain (Homo sapiens, UniProt P34913, C522S).
T3 construct: gene EPHX2; CTD, amino acids 230–555
T3 sequence (P34913 230-555 C522S): T1 sequence (P34913 230-555) with C293S
Put plainly: single injection method kinetic ITC (KM). It counts as biochemical.

Test [4] addresses T4, human soluble epoxide hydrolase (sEH) C-terminal domain, M3 mutant (Homo sapiens, UniProt P34913, R410A/C423S/S439A/R440A/K495A).
T4 construct: gene EPHX2; CTD, amino acids 230–555
T4 sequence (P34913 230-555 R410A/C423S/S439A/R440A/K495A): T1 sequence (P34913 230-555) with R181A, C194S, S210A, R211A, K266A
Put plainly: UV spectra of washed covalent adduct of purified protein; fluorometric PHOME specific activity assay. It counts as binding.

Test [5] concerns the target T1, human soluble epoxide hydrolase (sEH) C-terminal domain. Put plainly: spectrofluorometric hydrolysis assay with purified sEH CTD. The class given is biochemical.

For `CCCCCC1OC1C/C=C\C/C=C\C/C=C\CCCC(=O)O` (centres unmarked) [14(15)-EET], the values for the Km in test [1], in test [2] and in test [3] were 11.2 ± 0.46 µM, 14.6 ± 0.52 µM and 24 ± 2.58 µM, respectively.

As to `CCCCC/C=C/C=C1/C(=O)C=C[C@@H]1C/C=C\CCCC(=O)O` [15d-PGJ2], the “UV spectra of washed covalent adduct of purified protein; fluorometric PHOME spe” value in test [4] is listed as 8.2 fold reduction in enzymatic specific activity.

Regarding `COc1ccc2cc(C(C#N)OC(=O)CC3OC3c3ccccc3)ccc2c1` (centres unmarked) [PHOME, 3-phenyl-cyano(6-methoxy-2-naphthalenyl)methylester-2-oxiraneacetic acid], the “spectrofluorometric hydrolysis assay with purified sEH CTD” value in test [5] was “(PHOME), which upon sEH enzymatic hydrolysis releases the fluorescent product 6-methoxy-2-naphtaldeyde (6M2N)”.
